Among the data in US11059828B2, “Disubstituted octahydropyrrolo[3,4-C]pyrroles as orexin receptor modulators” (Janssen Pharmaceutica NV, priority 2009, dated 2021) are Ki values, retold here.

The target in the assay is human orexin-2 receptor (Homo sapiens (Human), UniProt O43614). The experiment in a line: Human Orexin 2 Receptor Radioligand Binding Studies ([3H]-EMPA competition). The conditions noted are these: HEK293 cells stably expressing human orexin-2 receptor; [3H]-EMPA 5 nM; apparent Ki; read-out: OR 2 Ki.
Chain of human orexin-2 receptor (O43614 whole entry): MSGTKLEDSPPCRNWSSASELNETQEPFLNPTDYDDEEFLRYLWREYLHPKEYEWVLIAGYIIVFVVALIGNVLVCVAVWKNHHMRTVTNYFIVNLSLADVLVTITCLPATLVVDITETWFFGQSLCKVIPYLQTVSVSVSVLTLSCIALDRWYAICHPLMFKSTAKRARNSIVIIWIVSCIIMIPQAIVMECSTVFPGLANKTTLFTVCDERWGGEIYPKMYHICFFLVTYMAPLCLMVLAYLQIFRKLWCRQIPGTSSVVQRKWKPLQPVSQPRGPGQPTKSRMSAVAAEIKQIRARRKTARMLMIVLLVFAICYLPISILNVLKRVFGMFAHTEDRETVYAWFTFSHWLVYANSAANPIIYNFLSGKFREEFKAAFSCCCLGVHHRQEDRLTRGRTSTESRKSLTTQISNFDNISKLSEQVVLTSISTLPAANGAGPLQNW

With `O=C(c1cccc(F)c1-n1nccn1)N1CC2CN(c3cnc4cc(F)c(F)cc4n3)CC2C1` (stereo not shown) [Example 244, (5-(6,7-Difluoroquinoxalin-2-yl)hexahydropyrrolo[3,4-c]pyrrol-2(1H)-yl)(3-fluoro-2-(2H-1,2,3-triazol-2-yl)phenyl)methanone], the Ki is 18 nM.
